According to patent publication US10994006B2, “Desensitizing mast cells by co-presentation of antigens with high affinity mast cell siglec ligands” (The Scripps Research Institute, priority 2016, dated 2021):
Entries after “also recorded” stand apart in the source; their conditions may differ.

How the values were obtained:
[1] = target: Siglec-8 (Homo sapiens, UniProt Q9NYZ4); settings: Bochner et al. 2005; Floyd et al. 2000; cited from earlier work
[2] = target: T1, hCD33 (Homo sapiens, UniProt P20138); test: solution-phase inhibition assay, flow cytometry: binding of fluorescently labelled hCD33 to ligand-coated beads
Protocol: Glycan microarrays may provide only qualitative measures of avidity and selectivity. Therefore, the relative affinities of these compounds were analyzed using solution-phase inhibition assays where IC50 values were determined using a flow cytometry assay. The flow cytometry assay evaluated whether the compounds were able to prevent the binding of fluorescently labelled hCD33 to ligand-coated beads, and these values were used to determine the relative inhibitory potency (rIP) for each compound compared to the native sialoside (rIP=1).
Target sequence in this assay (P20138 18-364): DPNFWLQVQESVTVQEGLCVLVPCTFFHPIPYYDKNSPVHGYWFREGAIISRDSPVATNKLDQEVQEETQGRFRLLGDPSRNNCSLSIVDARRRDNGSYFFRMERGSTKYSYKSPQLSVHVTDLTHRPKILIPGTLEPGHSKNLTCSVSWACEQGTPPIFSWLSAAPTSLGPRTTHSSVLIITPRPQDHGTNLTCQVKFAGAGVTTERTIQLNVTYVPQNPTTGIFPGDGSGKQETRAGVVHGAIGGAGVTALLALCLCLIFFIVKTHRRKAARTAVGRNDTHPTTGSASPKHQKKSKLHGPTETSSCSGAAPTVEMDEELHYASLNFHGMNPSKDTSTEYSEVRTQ

[3] = system: HL-60 cells; test: HL-60 cell binding to arrayed compound; parameters: species or system human; settings: AML cell line expressing intermediate levels of hCD33
Excerpt: This increase in avidity was further supported by the fact that HL-60 cells, an AML cell line expressing intermediate levels of hCD33, bound to compound 22.

[4] = target: T1, hCD33; test: glycan microarray binding of hCD33-Fc; parameters: made in house
Target sequence in this assay (P20138 18-259 limits assumed): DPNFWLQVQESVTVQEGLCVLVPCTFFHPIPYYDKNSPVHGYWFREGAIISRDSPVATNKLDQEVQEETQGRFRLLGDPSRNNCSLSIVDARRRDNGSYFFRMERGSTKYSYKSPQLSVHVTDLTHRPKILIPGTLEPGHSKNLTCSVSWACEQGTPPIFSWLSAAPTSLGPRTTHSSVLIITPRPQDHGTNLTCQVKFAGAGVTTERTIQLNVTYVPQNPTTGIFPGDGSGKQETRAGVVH

Siglec-8, sequence (Q9NYZ4 17-499): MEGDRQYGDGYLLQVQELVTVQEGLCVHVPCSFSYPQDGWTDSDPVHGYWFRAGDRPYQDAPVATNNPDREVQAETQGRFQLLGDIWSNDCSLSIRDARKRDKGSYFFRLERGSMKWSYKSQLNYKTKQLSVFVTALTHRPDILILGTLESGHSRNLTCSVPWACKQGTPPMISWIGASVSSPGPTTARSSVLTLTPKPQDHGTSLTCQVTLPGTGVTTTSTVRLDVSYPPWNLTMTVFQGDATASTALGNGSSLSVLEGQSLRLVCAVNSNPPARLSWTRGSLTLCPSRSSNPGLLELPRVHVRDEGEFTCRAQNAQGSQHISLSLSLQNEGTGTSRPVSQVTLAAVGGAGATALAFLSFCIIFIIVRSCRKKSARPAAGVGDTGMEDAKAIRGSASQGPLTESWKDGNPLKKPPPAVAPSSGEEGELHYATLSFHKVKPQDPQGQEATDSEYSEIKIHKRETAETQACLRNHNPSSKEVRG

increase in affinity relative to the native sialoside ([2]; hCD33) [fold] | IC50 ([2]; prevention of binding of fluorescently labelled hCD33 to ligand-coated beads) [µM] | rIP value ([2]; relative inhibitory potency compared to the native sialoside (rIP=1)) | Compound | binding to Siglec-8 [1] | binding of HL-60 cells to compound [3] | selectivity for hCD33 over hCD22 and mSn ([4]; glycan microarray) | binding (affinity/avidity, selectivity) to hCD33 on glycan array ([4]; printed at 100 μM or 3 μM, hCD33-Fc pre-complexed with R-PE anti-human IgG)
 |  |  | Neu5Acα2-3[6-SO4]Galβ1-4[Fucα1-3]GlcNAc [6′-sulfo-sLe^X] | binds to |  |  | 
350 | 11 | 351 | Cc1cc(C(=O)NC[C@@H](O)[C@@H](O)C2O[C@@](OCC3O[C@@H](O[C@@H]4C(CO)O[C@@H](OCCN)C(O)[C@H]4O)C(O)[C@@H](O)[C@H]3O)(C(=O)O)C[C@@H](O)[C@H]2NC(=O)Cn2cc(C3CCCCC3)nn2)cc(C)c1O (stereo partly shown) [Compound 22] |  | bound | showed increased selectivity for hCD33 over hCD22 and mSn | exhibited superior properties compared to the monosubstituted compounds; also recorded: exhibited higher avidity than both parent compounds
